From article PMC4543647, “Structural and Functional Analysis of BipA, a Regulator of Virulence in Enteropathogenic Escherichia coli” (The Journal of Biological Chemistry, 2015)
Like-named read-outs stand apart in the source and are kept apart here.

Key:
[1] = target: T1, BipA (TypA or YihK) (Escherichia coli, UniProt P0DTT0); assay: isothermal titration calorimetry; crystal structure […] A; assay type: binding; conditions: read-out: Ka (converted)
[2] = target: T1, BipA (TypA or YihK); assay: as above; assay type: binding

T1 sequence (P0DTT0 whole entry): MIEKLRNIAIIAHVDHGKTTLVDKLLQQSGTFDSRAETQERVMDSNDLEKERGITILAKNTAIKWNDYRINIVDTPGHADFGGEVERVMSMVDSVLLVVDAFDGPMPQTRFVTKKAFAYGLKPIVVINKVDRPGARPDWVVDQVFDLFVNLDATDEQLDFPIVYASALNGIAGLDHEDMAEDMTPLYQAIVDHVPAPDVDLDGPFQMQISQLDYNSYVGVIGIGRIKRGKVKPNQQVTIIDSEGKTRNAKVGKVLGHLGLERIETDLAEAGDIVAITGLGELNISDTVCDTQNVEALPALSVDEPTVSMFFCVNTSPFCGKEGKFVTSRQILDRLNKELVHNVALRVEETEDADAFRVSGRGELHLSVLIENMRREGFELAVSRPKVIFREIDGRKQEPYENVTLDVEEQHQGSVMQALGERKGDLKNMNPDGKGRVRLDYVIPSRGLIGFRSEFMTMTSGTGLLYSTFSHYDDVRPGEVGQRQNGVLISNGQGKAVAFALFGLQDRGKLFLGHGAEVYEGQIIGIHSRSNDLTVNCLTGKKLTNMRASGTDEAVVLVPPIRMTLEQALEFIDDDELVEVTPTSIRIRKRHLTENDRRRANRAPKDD

Row | SMILES | Kd [1] | Kd [2]
1 | Nc1nc2c(ncn2[C@@H]2O[C@H](COP(=O)(O)OP(=O)(O)O)[C@@H](O)[C@H]2O)c(=O)[nH]1 [GDP] | 14.5 µM | 
2 | Nc1nc2c(ncn2[C@@H]2O[C@H](COP(=O)(O)OP(=O)(O)O)[C@@H](OP(=O)(O)OP(=O)(O)O)[C@H]2O)c(=O)[nH]1 [ppGpp, guanosine-3′, 5′-bis pyrophosphate] |  | 41.7 µM
